We go through one substance from US9896436B2, “Histone demethylase inhibitors” (Celgene Quanticel Research, Inc., priority 2014, dated 2018).

Holding throughout (assay type): biochemical
Holding throughout (details): Table 5

The target of one assay is JMJD3 (Homo sapiens, UniProt O15054). Description: JMJD3 in vitro enzyme inhibition assay (AlphaScreen). The text has this: (§1) This assay determines the ability of a test compound to inhibit Jarid1B, JMJD2C and JMJD3 demethylase activity. Baculovirus expressed Jarid1B (GenBank Accession #NM-006618, AA 2-751) was purchased from BPS Bioscience (Cat #50121) or custom made by MolecularThroughput. Baculovirus expressed JMJD2C (GenBank Accession #BC143571, AA 2-372) was purchased from BPS Bioscience (Cat#50105). Baculovirus expressed JMJD3 (GenBank Accession #NM-001080424, AA1043-end) was purchased from BPS Bioscience (Cat#50115).
The ability of test compounds to inhibit the activity of JMJD3 was determined in 384-well plate format under the following reaction conditions: 1 nM JMJD3, 250 nM H3K27me3-biotin labeled peptide (Anaspec cat #64367), 1 μM alpha-ketoglutaric acid in assay buffer of 50 mM HEPES, pH7.3, 0.005% Brij35, 0.5 mM TCEP, 0.2 mg/ml BSA, 50 μM sodium L-ascorbate, 5 μM ammonium iron(II) sulfate. Reaction product is determined quantitatively by AlphaScreen detection after the addition of detection reagents anti-H3K27me1 antibody, 5 μg/ml AlphaScreen® Streptavidin-coated Donor beads, and 5 μg/ml AlphaScreen® Protein A Acceptor beads in 50 mM HEPES, pH7.3, 10 mM NaCl, 0.005% Brij35, 10 mM EDTA, 2 mg/ml BSA. […]
For orientation: Alpha assays give light when donor and acceptor beads are brought close together.

A further assay has as its target JMJD2C (Homo sapiens (Human), UniProt Q9H3R0). As to the kind of experiment: JMJD2C in vitro enzyme inhibition assay (TR-FRET).
From the text: as §1
The ability of test compounds to inhibit the activity of JMJD2C was determined in 384-well plate format under the following reaction conditions: 0.3 nM JMJD2C, 300 nM H3K9me3-biotin labeled peptide (Anaspec cat #64360), 2 μM alpha-ketoglutaric acid in assay buffer of 50 mM HEPES, pH7.3, 0.005% Brij35, 0.5 mM TCEP, 0.2 mg/ml BSA, 50 μM sodium L-ascorbate, and 2 μM ammonium iron(II) sulfate. Reaction product was determined quantitatively by TR-FRET after the addition of detection reagent Phycolink Streptavidin-allophycocyanin (Prozyme) and Europium-anti-di-methylated histone H3 lysine 9 (H3K9me2) antibody (PerkinElmer) in the presence of 5 mM EDTA in LANCE detection buffer (PerkinElmer) at a final concentration of 50 nM and 1 nM, respectively. […]

The target of another assay is Jarid1B (Homo sapiens (Human), UniProt Q9UGL1). Description: Jarid1B in vitro enzyme inhibition assay (TR-FRET).
Jarid1B, sequence (Q9UGL1 2-751): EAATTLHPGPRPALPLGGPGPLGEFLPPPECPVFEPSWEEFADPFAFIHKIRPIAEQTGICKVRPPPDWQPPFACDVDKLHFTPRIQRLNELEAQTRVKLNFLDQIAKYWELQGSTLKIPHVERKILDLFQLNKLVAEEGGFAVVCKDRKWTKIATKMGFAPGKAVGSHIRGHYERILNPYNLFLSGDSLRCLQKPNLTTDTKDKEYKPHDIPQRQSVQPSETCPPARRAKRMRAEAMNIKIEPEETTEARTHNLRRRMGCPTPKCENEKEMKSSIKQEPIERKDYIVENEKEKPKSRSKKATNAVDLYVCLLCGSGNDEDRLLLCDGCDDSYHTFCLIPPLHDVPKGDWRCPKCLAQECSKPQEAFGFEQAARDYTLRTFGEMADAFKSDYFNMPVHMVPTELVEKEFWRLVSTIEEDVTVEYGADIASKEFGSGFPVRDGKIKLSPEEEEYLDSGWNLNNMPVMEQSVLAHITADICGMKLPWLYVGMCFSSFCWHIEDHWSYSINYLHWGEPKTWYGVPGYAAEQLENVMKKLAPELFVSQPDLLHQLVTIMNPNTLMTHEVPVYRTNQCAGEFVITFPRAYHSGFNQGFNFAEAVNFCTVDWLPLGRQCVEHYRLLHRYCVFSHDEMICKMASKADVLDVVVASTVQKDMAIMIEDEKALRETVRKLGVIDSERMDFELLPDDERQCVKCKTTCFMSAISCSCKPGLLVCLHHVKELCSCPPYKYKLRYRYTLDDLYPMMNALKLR
From the text: as §1
The ability of test compounds to inhibit the activity of Jarid1B was determined in 384-well plate format under the following reaction conditions: 0.8 nM Jarid1B, 300 nM H3K4me3-biotin labeled peptide (Anaspec cat #64357), 2 μM alpha-ketoglutaric acid in assay buffer of 50 mM HEPES, pH7.3, 0.005% Brij35, 0.5 mM TCEP, 0.2 mg/ml BSA, 50 μM sodium L-ascorbate, and 2 μM ammonium iron(II) sulfate. Reaction product was determined quantitatively by TR-FRET after the addition of detection reagent Phycolink Streptavidin-allophycocyanin (Prozyme) and Europium-anti-mono- or di-methylated histone H3 lysine 4 (H3K4me1-2) antibody (PerkinElmer) in the presence of 5 mM EDTA in LANCE detection buffer (PerkinElmer) at a final concentration of 25 nM and 1 nM, respectively. […]
(In general: TR-FRET usually uses a lanthanide donor and a delayed reading to cut background.)

In general, IC50 refers to the point on the concentration scale where inhibition reaches its midpoint. Higher therefore signals lower potency.

Some results are limits rather than exact numbers.

JMJD2C, sequence (Q9H3R0 2-372): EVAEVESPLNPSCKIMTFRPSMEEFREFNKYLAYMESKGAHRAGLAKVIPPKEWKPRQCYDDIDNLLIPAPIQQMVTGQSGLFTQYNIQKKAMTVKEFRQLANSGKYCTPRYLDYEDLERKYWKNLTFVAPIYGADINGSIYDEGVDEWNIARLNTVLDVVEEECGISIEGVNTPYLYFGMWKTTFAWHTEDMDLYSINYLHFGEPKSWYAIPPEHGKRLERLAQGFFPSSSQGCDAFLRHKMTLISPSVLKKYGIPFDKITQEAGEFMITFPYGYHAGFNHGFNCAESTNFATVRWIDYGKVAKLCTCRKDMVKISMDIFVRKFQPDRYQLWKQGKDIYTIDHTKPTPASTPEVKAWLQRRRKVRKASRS

Take “2-{1-[(6-fluoro-1,2,3,4- tetrahydronaphthalen-1-yl)methyl]-1H- imidazol-4-yl}-4-[5-(trifluoromethyl)-1H 1,2,3-triazol-4-yl]pyridine [Example 100]”: the IC50 is over 10 µM on JMJD3, over 10 µM at JMJD2C and at most 0.1 µM on Jarid1B.
